According to US20100234815A1, “STABLE MELT PROCESSABLE CHLORHEXIDINE COMPOSITIONS” (Teleflex Medical Incorporated, priority 2009, published 2010):

What was measured:
Assay type in all cases: physicochemical
[1] = HPLC of CHA extracted from Versaflex CL30 compounded resin; details: for 4.1 peak (CHA) / RRT 0.6 (degradant) / RRT 1.3 (degradant) / RRT 1.6 (degradant): Versaflex CL30 compounded resin
Procedure: Versaflex® CL30 and chlorhexidine diacetate were separately fed into an 18 mm Leistritz twin screw intermeshing extruder from K-tron feeders at rates of 2.5 kg/hr and 0.25 kg/hr, respectively. The barrel zone temperatures were set from 131° C. thru 148° C. The extrudate was pelletized into small pellets.
(§1) Chlorhexidine diacetate content of the prepared samples was extracted with 1:1 tetrahydrofuran (THF): H2O and analyzed on the Agilent Eclipse XDB-CN 5u 4.6×150 mm column with guard column. Briefly, 2 centimeter (cm) sample segments were extracted with 5 mL of THF and 5 mL of H2O, vortexed, and centrifuged. HPLC analysis was run on an Agilent Eclipse XDB-CN 5u 4.6×150 mm column and 4.6×12.5 mm Eclipse XDB-CN guard column, with a mixture of deionized water, acetonitrile, and trifluoroacetic acid as the mobile phase. Concentrations of the analytes were determined via calibration curves.

[2] = HPLC of CHA extracted from co-extruded 7Fr single lumen tubing
Procedure: […] Co-extruded tubing was also analyzed for chlorhexidine degradants.
as §1

[3] = HPLC of CHA extracted from PVC compounded resin
Procedure: Separate samples of polyvinyl chloride (shore 65A and shore 85A respectively) and chlorhexidine diacetate were separately fed into an 18 mm Leistritz twin screw intermeshing extruder from K-tron feeders at rates of 2.0 kg/hr and 0.2 kg/hr, respectively. The barrel zone temperatures were set from 140° C. thru 155° C. The extrudate was pelletized into small pellets.
as §1
In addition to the experimental conditions described with reference to FIG. 7, chlorhexidine diacetate compounded in polyvinyl chloride (Shore A hardness of […] & 85) was subjected to melt temperatures ranging from about 145° C. to about 176° C. The concentration of the analytes was determined via a calibration curve as described in the following Table 6.

[4] = HPLC of chlorhexidine diacetate extracted from Tecothane-2095A compounded resin (thermal degradation on melt processing); details: for 4.1 peak (CHA) / RRT 0.6 (degradant) / RRT 1.3 (degradant) / RRT 1.6 (degradant): Tecothane-2095A compounded resin
Source text: Tecothane®-2095A was coated with 5% w/w polytetramethyleneoxide (PTMO) of molecular weight (MW)=1000 by mixing 45.1 gram (g) of PTMO with 900g Tecothane®-2095A. The PTMO coated resin and chlorhexidine diacetate were separately fed into an 18 millimeter (mm) Leistritz twin screw intermeshing extruder (Somerville, N.J.) from K-Tron feeders (Pitman, N.J.) at rates of 2.5 kilograms per hour (kg/hr) and 0.25 kg/hr, respectively. The extruder was set at 112 revolutions per minute (rpm) for screw speed and the barrel zone temperatures were set from 145° C. thru 178° C. The extrudate was pelletized into small pellets.
as §1
In addition to the experimental conditions described with reference to FIG. 2, chlorhexidine diacetate compounded in Tecothane 2095A was subjected to melt temperatures ranging from about 139° C. to about 172° C. and the concentration of the analytes was determined via a calibration curve as described in the following Table 1.

[5] = HPLC of chlorhexidine diacetate extracted from low melt temperature Tecoflex-93A compounded resin; details: for 4.289 peak (CHA) / RRT 0.6 (degradant) / RRT 1.3 (degradant) / RRT 1.6 (degradant): low melt temperature (LMT) Tecoflex-93A
Procedure: Low melting temperature Tecoflex-93A and chlorhexidine diacetate were separately fed into al 8 mm Leistritz twin screw intermeshing extruder from K-tron feeders at rates of 1 kg/hr and 0.1 kg/hr, respectively. The barrel zone temperatures were set at 121° C. for all zones. The extrudate was pelletized into small pellets.
as §1
In addition to the experimental conditions described with reference to FIG. 3, chlorhexidine diacetate compounded in low melt temperature Tecoflex-93A was subjected to melt temperatures ranging from about 131° C. to about 137° C. The concentration of the analytes was determined via a calibration curve as described in the following Table 2.

[6] = HPLC of chlorhexidine dodecanoate extracted from LMT Tecoflex-93A compounded resin; details: for 4.289 peak (CHDD) / RRT 0.6 (degradant) / RRT 1.3 (degradant) / RRT 1.6 (degradant): LMT Tecoflex-93A compounded resin
[7] = co-extruded 7Fr single lumen, melt temp 135 °C (condition 1)
[8] = PVC 60A compounded resin, melt temp 145 °C (condition 1)
[9] = PVC 60A compounded resin, melt temp 154 °C (condition 2)
[10] = PVC 60A compounded resin, melt temp 159 °C (condition 3)
[11] = PVC 60A compounded resin, melt temp 165 °C (condition 4)
[12] = PVC 60A compounded resin, melt temp 171 °C (condition 5)
[13] = PVC 85A compounded resin, melt temp 155 °C (condition 1)
[14] = PVC 85A compounded resin, melt temp 159 °C (condition 2)
[15] = PVC 85A compounded resin, melt temp 163 °C (condition 3)
[16] = PVC 85A compounded resin, melt temp 167 °C (condition 4)
[17] = PVC 85A compounded resin, melt temp 170 °C (condition 5)
[18] = PVC 85A compounded resin, melt temp 176 °C (condition 6)

CC(=O)O.CC(=O)O.NC(=N\CCCCCC/N=C(N)/N=C(\N)Nc1ccc(Cl)cc1)/N=C(\N)Nc1ccc(Cl)cc1 [CHA, chlorhexidine diacetate]
4.1 peak (CHA) ([1]; melt temp 101 °C (condition 1)): 100 | RRT 0.6 (degradant) ([1]; melt temp 101 °C (condition 1)): Not detected | RRT 1.3 (degradant) ([1]; melt temp 101 °C (condition 1)): Not detected | RRT 1.6 (degradant) ([1]; melt temp 101 °C (condition 1)): Not detected | 4.1 peak (CHA) ([1]; melt temp 121 °C (condition 2)): 100 | RRT 0.6 (degradant) ([1]; melt temp 121 °C (condition 2)): Not detected | RRT 1.3 (degradant) ([1]; melt temp 121 °C (condition 2)): Not detected | RRT 1.6 (degradant) ([1]; melt temp 121 °C (condition 2)): Not detected | 4.1 peak (CHA) ([1]; melt temp 129 °C (condition 3)): 100 | RRT 0.6 (degradant) ([1]; melt temp 129 °C (condition 3)): Not detected | RRT 1.3 (degradant) ([1]; melt temp 129 °C (condition 3)): Not detected | RRT 1.6 (degradant) ([1]; melt temp 129 °C (condition 3)): Not detected | 4.1 peak (CHA) ([1]; melt temp 139 °C (condition 4)): 100 | RRT 0.6 (degradant) ([1]; melt temp 139 °C (condition 4)): Not detected | RRT 1.3 (degradant) ([1]; melt temp 139 °C (condition 4)): Not detected | RRT 1.6 (degradant) ([1]; melt temp 139 °C (condition 4)): Not detected | 4.1 peak (CHA) ([1]; melt temp 144 °C (condition 5)): 100 | RRT 0.6 (degradant) ([1]; melt temp 144 °C (condition 5)): Not detected | RRT 1.3 (degradant) ([1]; melt temp 144 °C (condition 5)): Not detected | RRT 1.6 (degradant) ([1]; melt temp 144 °C (condition 5)): Not detected | 4.1 peak (CHA) ([1]; melt temp 149 °C (condition 6)): 100 | RRT 0.6 (degradant) ([1]; melt temp 149 °C (condition 6)): Not detected | RRT 1.3 (degradant) ([1]; melt temp 149 °C (condition 6)): Not detected | RRT 1.6 (degradant) ([1]; melt temp 149 °C (condition 6)): Not detected | 4.1 peak (CHA) ([1]; melt temp 153 °C (condition 7)): 100 | RRT 0.6 (degradant) ([1]; melt temp 153 °C (condition 7)): Not detected | RRT 1.3 (degradant) ([1]; melt temp 153 °C (condition 7)): Not detected | RRT 1.6 (degradant) ([1]; melt temp 153 °C (condition 7)): Not detected | 4.1 peak (CHA) ([1]; melt temp 161 °C (condition 8)): 100 | RRT 0.6 (degradant) ([1]; melt temp 161 °C (condition 8)): Not detected | RRT 1.3 (degradant) ([1]; melt temp 161 °C (condition 8)): Not detected | RRT 1.6 (degradant) ([1]; melt temp 161 °C (condition 8)): Not detected | 4.289 peak (CHA) [2, 7]: 100 | RRT 0.6 (degradant) [2, 7]: Not detected | RRT 1.3 (degradant) [2, 7]: Not detected | RRT 1.6 (degradant) [2, 7]: Not detected | stable processing temperature limit ([2]; with polyurethanes, from Table 4 (co-extruded 7Fr single lumen)): at least 135 °C | % Peak area (degradant) [3, 8]: Not detected | % Peak area CHA [3, 8]: 100% | % Peak area (degradant) [3, 9]: Not detected | % Peak area CHA [3, 9]: 100% | % Peak area (degradant) [3, 10]: Not detected | % Peak area CHA [3, 10]: 100% | % Peak area (degradant) [3, 11]: Not detected | % Peak area CHA [3, 11]: 100% | % Peak area (degradant) [3, 12]: 0.4% | % Peak area CHA [3, 12]: 99.6% | % Peak area (degradant) [3, 13]: Not detected | % Peak area CHA [3, 13]: 100% | % Peak area (degradant) [3, 14]: Not detected | % Peak area CHA [3, 14]: 100% | % Peak area (degradant) [3, 15]: Not detected | % Peak area CHA [3, 15]: 100% | % Peak area (degradant) [3, 16]: 0.4% | % Peak area CHA [3, 16]: 99.6% | % Peak area (degradant) [3, 17]: 0.3% | % Peak area CHA [3, 17]: 99.7% | % Peak area (degradant) [3, 18]: 0.7% | % Peak area CHA [3, 18]: 99.3% | thermal degradation on melt processing (HPLC, FIG. 5) ([3]; compounded in polyvinyl chloride (Shore A hardness of 65), melt temperature 145 °C, 280 nm): did not degrade | thermal degradation on melt processing (HPLC, FIG. 6) ([3]; compounded in polyvinyl chloride (Shore A hardness of 85), melt temperature 155 °C, 280 nm): did not degrade | amount of degradant generated (HPLC, FIG. 7) ([3]; compounded in polyvinyl chloride (Shore A hardness of 85), processed at 176 °C, 280 nm): less than 1% | 4.1 peak (CHA) ([4]; melt temp 139 °C (condition 1)): 89% | RRT 0.6 (degradant) ([4]; melt temp 139 °C (condition 1)): 3% | RRT 1.3 (degradant) ([4]; melt temp 139 °C (condition 1)): 8% | RRT 1.6 (degradant) ([4]; melt temp 139 °C (condition 1)): 1% | 4.1 peak (CHA) ([4]; melt temp 142 °C (condition 2)): 88% | RRT 0.6 (degradant) ([4]; melt temp 142 °C (condition 2)): 3% | RRT 1.3 (degradant) ([4]; melt temp 142 °C (condition 2)): 8% | RRT 1.6 (degradant) ([4]; melt temp 142 °C (condition 2)): 1% | 4.1 peak (CHA) ([4]; melt temp 144 °C (condition 3)): 84% | RRT 0.6 (degradant) ([4]; melt temp 144 °C (condition 3)): 4% | RRT 1.3 (degradant) ([4]; melt temp 144 °C (condition 3)): 11% | RRT 1.6 (degradant) ([4]; melt temp 144 °C (condition 3)): 1% | 4.1 peak (CHA) ([4]; melt temp 172 °C (condition 4)): 77% | RRT 0.6 (degradant) ([4]; melt temp 172 °C (condition 4)): 7% | RRT 1.3 (degradant) ([4]; melt temp 172 °C (condition 4)): 13% | RRT 1.6 (degradant) ([4]; melt temp 172 °C (condition 4)): 3% | thermal degradation on melt processing (HPLC, FIG. 2) ([4]; compounded in Tecothane 2095A, melt temperature 164 °C, 280 nm): degrades into several products | thermal degradation on melt processing (HPLC, FIG. 3) ([5]; compounded in low melt temperature Tecoflex-93A, melt temperature 136 °C, 280 nm): did not degrade | 4.289 peak (CHA) ([5]; melt temp 131 °C (condition 1)): 100 | RRT 0.6 (degradant) ([5]; melt temp 131 °C (condition 1)): Not detected | RRT 1.3 (degradant) ([5]; melt temp 131 °C (condition 1)): Not detected | RRT 1.6 (degradant) ([5]; melt temp 131 °C (condition 1)): Not detected | 4.289 peak (CHA) ([5]; melt temp 137 °C (condition 2)): 100 | RRT 0.6 (degradant) ([5]; melt temp 137 °C (condition 2)): Non-detected | RRT 1.3 (degradant) ([5]; melt temp 137 °C (condition 2)): Not detected | RRT 1.6 (degradant) ([5]; melt temp 137 °C (condition 2)): Not detected | stable processing temperature limit ([5]; with polyurethanes): about 137 °C

CCCCCCCCCCCC(=O)O.NC(=NCCCCCCN=C(N)N=C(N)Nc1ccc(Cl)cc1)N=C(N)Nc1ccc(Cl)cc1 [CHDD, chlorhexidine dodecanoate]
4.289 peak (CHDD) ([6]; melt temp 132 °C (condition 1)): 100 | RRT 0.6 (degradant) ([6]; melt temp 132 °C (condition 1)): Non-detected | RRT 1.3 (degradant) ([6]; melt temp 132 °C (condition 1)): Not detected | RRT 1.6 (degradant) ([6]; melt temp 132 °C (condition 1)): Not detected | 4.289 peak (CHDD) ([6]; melt temp 136 °C (condition 2)): 100 | RRT 0.6 (degradant) ([6]; melt temp 136 °C (condition 2)): Non-detected | RRT 1.3 (degradant) ([6]; melt temp 136 °C (condition 2)): Not detected | RRT 1.6 (degradant) ([6]; melt temp 136 °C (condition 2)): Not detected | thermal degradation on melt processing (HPLC, FIG. 4) ([6]; compounded in low melt temperature Tecoflex-93A, melt temperature 137 °C, 280 nm): did not degrade | stable processing temperature limit ([6]; with polyurethanes): at least 136 °C

[H]/N=C(\N/C(=N/[H])NCCCCCCNC(=N)NC(=N)Nc1ccc(Cl)cc1)Nc1ccc(Cl)cc1 [chlorhexidine]
processing temperature at which thermally stable ([1]; with polyolefin thermoplastic elastomers (Versaflex CL30)): up to 161 °C | processing temperature at which thermally stable ([3]; with vinyl polymers (PVC 60A & 85A)): ≤ 165 °C
